Results published in patent US9884842B2, “Combretastatin analogs” (The Board of Trustees of the University of Arkansas, priority 2013, dated 2018).

How the values were obtained:
A498 = experiment: NCI growth inhibition and cytotoxicity screen, Renal Cancer panel; conditions: Homo sapiens; for GI50: A498; for CC50: A498, read-out: LC50
HL-60(TB) = experiment: cells; conditions: Homo sapiens; for GI50: HL-60; for CC50: HL-60, read-out: LC50
K-562 = experiment: NCI growth inhibition and cytotoxicity screen, Leukemia panel; conditions: Homo sapiens; for CC50: K562, read-out: LC50
MALME-3M = experiment: NCI growth inhibition and cytotoxicity screen, Melanoma panel; conditions: Homo sapiens; for CC50: read-out: LC50
TK-10 = experiment: NCI growth inhibition and cytotoxicity screen, Renal Cancer panel; conditions: Homo sapiens; for GI50: TK-10; for CC50: TK-10, read-out: LC50
NCI-H226 = experiment: NCI growth inhibition and cytotoxicity screen, Lung Cancer panel; conditions: Homo sapiens; for GI50: NCI-H226; for CC50: NCI-H226, read-out: LC50
RPMI-8226 = experiment: NCI growth inhibition and cytotoxicity screen, Leukemia panel; conditions: Homo sapiens; for GI50: RPMI-8226; for CC50: RPMI-8226, read-out: LC50
OVCAR-5 = experiment: NCI growth inhibition and cytotoxicity screen, Ovarian Cancer panel; conditions: Homo sapiens; for GI50: OVCAR-5; for CC50: OVCAR-5, read-out: LC50
SF-295 = experiment: NCI growth inhibition and cytotoxicity screen, CNS Cancer panel; assay type: cell-based; conditions: Homo sapiens, SF-295, Table 1, cell line SF-2395 (CNS Cancer); for CC50: read-out: LC50 (the source's name)
LOX-IMVI = experiment: NCI growth inhibition and cytotoxicity screen, Melanoma panel; conditions: Homo sapiens; for CC50: read-out: LC50
SK-MEL-2 = experiment: as above; conditions: Homo sapiens; for GI50: SK-MEL-2; for CC50: SK-MEL-2, read-out: LC50
M14 = experiment: as above; conditions: Homo sapiens; for GI50: M14; for CC50: M14, read-out: LC50
786-0 = experiment: NCI growth inhibition and cytotoxicity screen, Renal Cancer panel; conditions: Homo sapiens; for GI50: 786-0; for CC50: 786-0, read-out: LC50
UO-31 = experiment: as above; conditions: Homo sapiens; for GI50: UO-31; for CC50: UO-31, read-out: LC50
SW-620 = experiment: NCI growth inhibition and cytotoxicity screen, Colon Cancer panel; conditions: Homo sapiens; for GI50: SW-620; for CC50: SW-620, read-out: LC50
HOP-62 = experiment: NCI growth inhibition and cytotoxicity screen, Lung Cancer panel; conditions: Homo sapiens; for GI50: HOP-62; for CC50: HOP-62, read-out: LC50
HT29 = experiment: NCI growth inhibition and cytotoxicity screen, Colon Cancer panel; conditions: Homo sapiens; for GI50: HT-29; for CC50: HT-29, read-out: LC50
SF-539 = experiment: NCI growth inhibition and cytotoxicity screen, CNS Cancer panel; conditions: Homo sapiens; for GI50: SF-539; for CC50: SF-539, read-out: LC50
OVCAR-8 = experiment: NCI growth inhibition and cytotoxicity screen, Ovarian Cancer panel; conditions: Homo sapiens; for GI50: OVCAR-8; for CC50: OVCAR-8, read-out: LC50
SN12C = experiment: NCI growth inhibition and cytotoxicity screen, Renal Cancer panel; conditions: Homo sapiens; for CC50: read-out: LC50
A549/ATCC = experiment: NCI growth inhibition and cytotoxicity screen, Lung Cancer panel; conditions: Homo sapiens; for GI50: A549; for CC50: A549, read-out: LC50
HOP-92 = experiment: as above; conditions: Homo sapiens; for GI50: HOP-92; for CC50: HOP-92, read-out: LC50
HCT-15 = experiment: NCI growth inhibition and cytotoxicity screen, Colon Cancer panel; conditions: Homo sapiens; for GI50: HCT-15; for CC50: HCT-15, read-out: LC50
CAKI-1 = experiment: NCI growth inhibition and cytotoxicity screen, Renal Cancer panel; conditions: Homo sapiens; for GI50: CAKI-1; for CC50: CAKI-1, read-out: LC50
SNB-75 = experiment: NCI growth inhibition and cytotoxicity screen, CNS Cancer panel; conditions: Homo sapiens; for GI50: SNB-75; for CC50: SNB-75, read-out: LC50
NCI-H460 = experiment: NCI growth inhibition and cytotoxicity screen, Lung Cancer panel; conditions: Homo sapiens; for GI50: NCI-H460; for CC50: NCI-H460, read-out: LC50
OVCAR-4 = experiment: NCI growth inhibition and cytotoxicity screen, Ovarian Cancer panel; conditions: Homo sapiens; for GI50: OVCAR-4; for CC50: OVCAR-4, read-out: LC50
UACC-62 = experiment: NCI growth inhibition and cytotoxicity screen, Melanoma panel; conditions: Homo sapiens; for GI50: UACC-62; for CC50: UACC-62, read-out: LC50
MDA-MB-231/ATCC = experiment: NCI growth inhibition and cytotoxicity screen, Breast Cancer panel; conditions: Homo sapiens; for GI50: MDA-MB-231; for CC50: MDA-MB-231, read-out: LC50
U251 = experiment: NCI growth inhibition and cytotoxicity screen, CNS Cancer panel; conditions: Homo sapiens; for GI50: U-251; for CC50: U-251, read-out: LC50
SK-MEL-28 = experiment: NCI growth inhibition and cytotoxicity screen, Melanoma panel; conditions: Homo sapiens; for GI50: SK-MEL-28; for CC50: SK-MEL-28, read-out: LC50

With `COc1cc(/C=C/c2cc3ccccc3o2)cc(OC)c1OC` [Formula (I)(c)] the GI50 (A498) was 0.0004 µM, the CC50 (A498) was 48.4 µM and the GI50 (HL-60(TB)) was 0.00035 µM. The CC50 (HL-60(TB)) was > 100 µM, the CC50 (K-562) was > 100 µM and the GI50 (MALME-3M) was 0.00041 µM. For the same molecule, the CC50 (MALME-3M) was 86.3 µM, the GI50 (TK-10) was 0.0084 µM and the CC50 (TK-10) was > 100 µM. The GI50 (NCI-H226) was 0.0011 µM, the CC50 (NCI-H226) was > 100 µM and the GI50 (RPMI-8226) was 0.0007 µM. The CC50 (RPMI-8226) was > 100 µM, the GI50 (OVCAR-5) was 0.00294 µM and the CC50 (OVCAR-5) was > 100 µM. For the same molecule, the GI50 (SF-295) was 0.00035 µM, the CC50 (SF-295) was > 100 µM and the GI50 (LOX-IMVI) was 0.00089 µM. For the same molecule, the CC50 (LOX-IMVI) was 60.4 µM, the GI50 (SK-MEL-2) was 0.00076 µM and the CC50 (SK-MEL-2) was > 100 µM. For the same molecule, the GI50 (M14) was 0.00047 µM, the CC50 (M14) was 88.4 µM and the GI50 (786-0) was 0.00085 µM. For the same molecule, the CC50 (786-0) was 79.8 µM, the GI50 (UO-31) was 0.00115 µM and the CC50 (UO-31) was > 100 µM. The GI50 (SW-620) was 0.00044 µM, the CC50 (SW-620) was > 100 µM and the GI50 (HOP-62) was 0.00077 µM. The CC50 (HOP-62) was > 100 µM, the GI50 (HT29) was 0.00037 µM and the CC50 (HT29) was > 100 µM. The GI50 (SF-539) was 0.00027 µM, the CC50 (SF-539) was > 100 µM and the GI50 (OVCAR-8) was 0.00205 µM. The CC50 (OVCAR-8) was > 100 µM, the GI50 (SN12C) was 0.00409 µM and the CC50 (SN12C) was > 100 µM. The GI50 (A549/ATCC) was 0.00061 µM, the CC50 (A549/ATCC) was > 100 µM and the GI50 (HOP-92) was 0.00017 µM. The CC50 (HOP-92) was > 100 µM, the GI50 (HCT-15) was 0.0004 µM and the CC50 (HCT-15) was > 100 µM. For the same molecule, the GI50 (CAKI-1) was 0.00058 µM, the CC50 (CAKI-1) was > 100 µM and the GI50 (SNB-75) was 0.00047 µM. The CC50 (SNB-75) was > 100 µM, the GI50 (NCI-H460) was 0.00041 µM and the CC50 (NCI-H460) was > 100 µM. For the same molecule, the GI50 (OVCAR-4) was 0.00115 µM, the CC50 (OVCAR-4) was > 100 µM and the GI50 (UACC-62) was 0.0005 µM. The CC50 (UACC-62) was > 100 µM, the GI50 (MDA-MB-231/ATCC) was 0.00117 µM and the CC50 (MDA-MB-231/ATCC) was > 100 µM. It also gave a GI50 (U251) of 0.00066 µM, a CC50 (U251) of 81.2 µM and a GI50 (SK-MEL-28) of 0.00083 µM. The CC50 (SK-MEL-28) was > 100 µM.
`COc1cc(OC)cc(/C(C#N)=C/c2c[nH]c3ccccc23)c1` [Formula (I)(b)] was tested, and the GI50 (A498) was 0.0353 µM, the CC50 (A498) was > 100 µM and the GI50 (HL-60(TB)) was 0.0312 µM. For the same molecule, the CC50 (HL-60(TB)) was > 100 µM, the GI50 (K-562; K562) was 0.0432 µM and the CC50 (K-562) was > 100 µM. For the same molecule, the CC50 (MALME-3M) was > 100 µM, the GI50 (TK-10) was > 0.1 µM and the CC50 (TK-10) was > 100 µM. The GI50 (NCI-H226) was > 0.1 µM, the CC50 (NCI-H226) was > 100 µM and the GI50 (RPMI-8226) was 0.0655 µM. For the same molecule, the CC50 (RPMI-8226) was > 100 µM, the GI50 (OVCAR-5) was > 0.1 µM and the CC50 (OVCAR-5) was > 100 µM. The GI50 (SF-295) was 0.0453 µM, the CC50 (SF-295) was > 100 µM and the GI50 (LOX-IMVI) was 0.0784 µM. The CC50 (LOX-IMVI) was > 100 µM, the GI50 (SK-MEL-2) was 0.0512 µM and the CC50 (SK-MEL-2) was > 100 µM. The GI50 (M14) was 0.0424 µM, the CC50 (M14) was > 100 µM and the GI50 (786-0) was 0.0773 µM. The CC50 (786-0) was > 100 µM, the GI50 (UO-31) was > 0.1 µM and the CC50 (UO-31) was > 100 µM. The GI50 (SW-620) was 0.0441 µM, the CC50 (SW-620) was > 100 µM and the GI50 (HOP-62) was > 0.1 µM. The CC50 (HOP-62) was > 100 µM, the GI50 (HT29) was 0.0384 µM and the CC50 (HT29) was > 100 µM. The GI50 (SF-539) was 0.0522 µM, the CC50 (SF-539) was 90.2 µM and the GI50 (OVCAR-8) was > 0.1 µM. The CC50 (OVCAR-8) was > 100 µM, the GI50 (SN12C) was 0.0779 µM and the CC50 (SN12C) was > 100 µM. The GI50 (A549/ATCC) was 0.0618 µM, the CC50 (A549/ATCC) was > 100 µM and the GI50 (HOP-92) was 0.0684 µM. The CC50 (HOP-92) was > 100 µM, the GI50 (HCT-15) was 0.0535 µM and the CC50 (HCT-15) was > 100 µM. For the same molecule, the GI50 (CAKI-1) was 0.035 µM, the CC50 (CAKI-1) was > 100 µM and the GI50 (SNB-75) was 0.0348 µM. The CC50 (SNB-75) was > 100 µM, the GI50 (NCI-H460) was 0.0392 µM and the CC50 (NCI-H460) was > 100 µM. The GI50 (OVCAR-4) was > 0.1 µM, the CC50 (OVCAR-4) was > 100 µM and the GI50 (UACC-62) was 0.0493 µM. For the same molecule, the CC50 (UACC-62) was > 100 µM, the GI50 (MDA-MB-231/ATCC) was > 0.1 µM and the CC50 (MDA-MB-231/ATCC) was > 100 µM. For the same molecule, the GI50 (U251) was 0.0454 µM, the CC50 (U251) was > 100 µM and the GI50 (SK-MEL-28) was 0.0811 µM. The CC50 (SK-MEL-28) was > 100 µM.
